Experimental data taken from patent US10543284B2, “Anti-c-Met antibody and anti-c-Met antibody-cytotoxic drug conjugate and pharmaceutical use thereof” (Suzhou Suncadia Biopharmaceuticals Co., Ltd., priority 2015, dated 2020).
Read-outs that look alike come from different tables or passages of the source. *1 amine or outer side, *2 acyl side, *3 side chain or, on linkers, in order; H or OH if unused. Where a SMILES comes first, the peptide text is derived from it. [ ]: non-standard residue; d: D form. X1 = CO[C@H]([C@@H](C)C(=O)[*:2])[C@@H]1C[C@@H]2C[C@@H]2N1[*:1]; Dolaproine = CO[C@@H]([C@@H]1CCCN1)[C@@H](C)C(=O)O; Dil = CC[C@H](C)[C@H](NC)[C@@H](CC(=O)O)OC; Phe(2-F) = N[C@@H](Cc1ccccc1F)C(=O)O; NMeV = CN[C@H](C(=O)O)C(C)C

Experiments:
MKN45 cell = assay: ATP cytotoxicity test (CellTiter-Glo, 72 hours) in MKN45; format: cell-based, human
Protocol: In order to assess the toxic effects of the ADC molecules of the present invention on cells, the ATP toxicity test was performed. ATP is an indicator of the metabolism of living cells, and the detection of ATP can reflect the effect of the toxicity of molecules on cells.
HepG2 cells (Chinese Academy of Sciences cell bank, Cat # TCHu 72) were cultivated in EMEM complete medium containing 10% FBS, and MKN45 cells were cultivated in RPMI1640 complete medium containing 10% FBS. Trypsinization was performed for 2-3 min by adding 2-3 ml trypsin, 10-15 ml complete medium was added to elute the trypsinized cells when the trypsinization was complete, and the cells were centrifuged at 1000 rpm for 3 min. The supernatant was discarded, 10-20 ml complete medium was added to resuspend the cells to obtain a single cell suspension, and the cell density was adjusted to 4×10^4 cells/ml. 0.1 ml of the above cell suspension was added to each well of a 96-well cell culture plate and cultivated in an incubator at 37° C. in 5% CO2. […] The chemiluminescence was measured by a microplate reader (VICTOR 3, PerkinElmer), and the result was analyzed by GraphPad Prism (version 5.0) software.

HepG2 cell = assay: ATP cytotoxicity test (CellTiter-Glo, 72 hours) in HepG2; format: cell-based, human
Protocol: HepG2 cells (Chinese Academy of Sciences cell bank, Cat # TCHu 72) were cultivated in EMEM complete medium containing 10% FBS, and MKN45 cells were cultivated in RPMI1640 complete medium containing 10% FBS. Trypsinization was performed for 2-3 min by adding 2-3 ml trypsin, 10-15 ml complete medium was added to elute the trypsinized cells when the trypsinization was complete, and the cells were centrifuged at 1000 rpm for 3 min. The supernatant was discarded, 10-20 ml complete medium was added to resuspend the cells to obtain a single cell suspension, and the cell density was adjusted to 4×10^4 cells/ml. 0.1 ml of the above cell suspension was added to each well of a 96-well cell culture plate and cultivated in an incubator at 37° C. in 5% CO2. […] Detection was performed according to the instructions of CellTiter-Glo® Luminescent Cell Viability Assay kit (Promega, Cat # G7571). The chemiluminescence was measured by a microplate reader (VICTOR 3, PerkinElmer), and the result was analyzed by GraphPad Prism (version 5.0) software.

[1] = test system: a variety of human tumor cell lines; details: cited from earlier work
human c-Met-His = target: T1, human c-Met-His (Homo sapiens, UniProt P08581); assay: ELISA binding of c-Met antibody to c-Met antigen; details: hybridoma fusion clones, ELISA read at 450 nm
T1 construct: His (C); made in house; host or cells: 293F cells
T1 sequence (P08581 25-932 limits assumed): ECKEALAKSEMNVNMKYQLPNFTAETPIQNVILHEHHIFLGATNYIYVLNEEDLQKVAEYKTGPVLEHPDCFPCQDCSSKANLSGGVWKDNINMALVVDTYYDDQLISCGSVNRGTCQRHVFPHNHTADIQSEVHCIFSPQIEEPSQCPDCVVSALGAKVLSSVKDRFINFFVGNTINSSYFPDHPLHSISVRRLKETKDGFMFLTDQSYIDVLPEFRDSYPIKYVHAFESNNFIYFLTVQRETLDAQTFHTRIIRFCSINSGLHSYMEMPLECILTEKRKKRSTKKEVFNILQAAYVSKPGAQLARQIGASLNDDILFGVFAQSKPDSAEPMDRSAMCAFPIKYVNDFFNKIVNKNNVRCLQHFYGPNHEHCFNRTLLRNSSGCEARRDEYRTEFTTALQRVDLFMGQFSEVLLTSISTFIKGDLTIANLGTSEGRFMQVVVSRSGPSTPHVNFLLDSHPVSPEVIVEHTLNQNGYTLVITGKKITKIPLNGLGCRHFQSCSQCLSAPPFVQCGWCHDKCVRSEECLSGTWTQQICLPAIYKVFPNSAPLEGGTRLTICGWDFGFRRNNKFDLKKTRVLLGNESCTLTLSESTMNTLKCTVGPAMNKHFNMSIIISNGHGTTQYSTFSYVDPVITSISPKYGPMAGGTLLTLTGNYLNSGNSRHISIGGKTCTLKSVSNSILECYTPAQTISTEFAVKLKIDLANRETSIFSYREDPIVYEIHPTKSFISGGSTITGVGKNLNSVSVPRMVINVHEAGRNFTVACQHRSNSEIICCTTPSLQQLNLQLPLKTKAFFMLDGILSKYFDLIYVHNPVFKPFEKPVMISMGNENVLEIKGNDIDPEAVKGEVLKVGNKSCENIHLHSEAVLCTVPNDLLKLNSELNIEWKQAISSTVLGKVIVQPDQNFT
Protocol: This experiment uses enzyme linked immunosorbent assay (ELISA) to detect affinity of c-Met antibody to c-Met antigen in vitro (including supernatant of hybridoma or recombinantly expressed monoclonal antibodies).
Experimental procedures: Coating buffer (PBS; Hyclone, Cat No.: SH30256.01B) was used to dilute antigen (human c-Met-His, example 1) to 2 μg/ml, which was added to 96-well plate with 100 μl/well (Costar 9018, Cat No.: 03113024) and incubated overnight at 4′C. […] The plate was read with plate reader at 450 nm.
After immunization, mice with a serum titer higher than 1:10^5 were selected for fusion. Mouse B-cells and myeloma cells (SP2/0, ATCC number: CRL-1581™) were prepared respectively in aseptic conditions and counted. […] The next day, positive clones were detected by ELISA (see Methods in Example 2).

MKN45 cells = assay: Inhibition of proliferation of MKN45 gastric cancer cells (CellTiter-Glo, 5 days); format: cell-based, human; details: monoclone culture supernatant, 5 days
Source text: The clones above were selected and further cultured to obtain monoclones. After verification of binding activity by ELISA, monoclones were selected for cultivation, and the resulting supernatant was subjected to a cell viability assay. According to the experiment principle, anti-human c-Met antibodies of the invention are able to inhibit phosphorylation of c-Met expressed on the surface of human gastric cancer cell line MKN45, thereby inhibiting the proliferation of MNK45 cells.
Human gastric cancer cells (MKN45, JCRB, JCRB0254, P11) were added to a 96-well cell culture plate (costar, #3799) at 1×10^5 cells/mL and 50 μl/well. The medium was RPMI1640 medium: (GIBCO, cat #11835)+10% FBS (GIBCO-10099141). Anti-human c-Met antibodies to be tested were added at 50 μl/well, and the plate was cultured for 5 days in incubator at 37′C (Manufacture: SANYO; Equipment No. TINC035). CellTiter-Glo® Luminescent Cell Viability Assay (Promega, G7573) was used, and the proliferation of cells was detected according to the instructions. The plate was read by a PerkinElmer plate reader, TREA001-RDA-IBA100. The following formula was used to calculate the percentage proliferation of cells: % proliferation of cells=(1−cell reads in experimental group/cell reads in untreated group)×100%.

Molecule: CC[C@H](C)[C@@H]([C@@H](CC(=O)N1[C@H]2C[C@H]2C[C@H]1[C@H](OC)[C@@H](C)C(=O)N[C@@H](Cc1ccccc1F)C(=O)O)OC)N(C)C(=O)[C@@H](NC(=O)[C@@H](NC)C(C)C)C(C)C [12 g, (S)-2-((2R,3R)-3-((1S,3S,5S)-2-((3R,4S,5S)-4-((S)—N,3-dimethyl-2-((S)-3-methyl-2-(methylamino)butyramide)butyramide)-3-methoxy-5-methylheptanoyl)-2-azabicyclo[3.1.0]hexane-3-yl)-3-methoxy-2-methylpropanamido)-3-(2-fluorophenyl)propionic acid] (H-[NMeV]V[Dil][X1][Phe(2-F)]-OH)
- IC50 (MKN45 cell; Homo sapiens, MKN-45): 79.4 nM
- IC50 (HepG2 cell; Homo sapiens, HepG2, ND: No activity was detected): 401 nM

Molecule: CC[C@H](C)C([C@@H](CC(=O)N1CCC[C@H]1[C@H](OC)[C@@H](C)C(=O)N[C@H](C)[C@@H](O)c1ccccc1)OC)N(C)C(=O)[C@@H](NC(=O)[C@@H](NC)C(C)C)C(C)C (stereo partly shown) [MMAE, Monomethyl aurantatin E]
- inhibitory activities against a variety of human tumor cell lines [1]: less than one nanomolar

Molecule: CC[C@H](C)[C@@H]([C@@H](CC(=O)N1CCC[C@H]1[C@H](OC)[C@@H](C)C(=O)N[C@@H](Cc1ccccc1)C(=O)O)OC)N(C)C(=O)[C@@H](NC(=O)[C@@H](NC)C(C)C)C(C)C [MMAF, reference compound] (H-[NMeV]V[Dil][Dolaproine]F-OH)
- IC50 (MKN45 cell): 0.85 nM
- IC50 (HepG2 cell; ND: No activity was detected): 4.88 nM

B1: Ab-5: mouse hybridoma cell monoclonal antibody; heavy chain variable region SEQ ID NO: 4, light chain variable region SEQ ID NO: 5 (antibody, V domains shown)
VH: QVQLKQSGPGLVQPSQSLSITCTVSGFSLPNYGVHWVRQSPGKGLEWLGVIWSGGSTNYAAAFVSRLRISKDNSKSQVFFEMNSLQADDTAVYYCARNHDNPYNYAMDYWGQGTTVTVSS
VL: DIVLTQSPGSLAVYLGQRATISCRANKSVSTSTYNYLHWYQQKPGQPPKLLIYLASNLASGVPARFSGSGSGTDFTLNIHPLEEEDAATYYCQHSRDLPPTFGAGTKLELKR
modifications: Murine
- Detection Results (OD450) (human c-Met-His): 1.64
- MKN45 inhibition percentage (%) (MKN45 cells): 77.4%
